Patent US10421722B2, “Sulfur-containing compounds targeting vesicular acetylcholine transporter” (Washington University, priority 2016, dated 2019)

Assays:
VAChT [1] = molecular target: VAChT (Rattus norvegicus (Rat), UniProt Q62666); assay: Ex vivo autoradiography of rat brain; type: in vivo, Sprague-Dawley rat; details: for uptake ratio of radioactivity in striatum versus cerebellum: 30 slices, 60 min post-injection, tail vein; for brain distribution of radioactivity (autoradiograms): 1 h after injection
Procedure: Ex vivo autoradiography was performed on 6-8 month old male Sprague-Dawley rats to confirm the brain distribution of radiolabeled VAChT ligands. Mature male Sprague-Dawley rats were injected with ˜500 μCi of (−)-[^11C]3 or (−)-[^18F]9a via the tail vein under isoflurane/oxygen anesthesia, respectively. The rats were euthanized after 1 h and the brains were quickly removed and placed in a metal brain matrix with slots spaced at 1 mm intervals. The brains were then frozen in the matrix and sectioned into 100 μm coronal slices. Brain slices were carefully removed from the brain matrix razor blades and placed on a clear sheet covered with film and mounting on glass slides. Then, the brain sections were exposed to the film in an imaging cassette for 12 h before they were counted by the FLA7000. Photographic images were obtained using a flatbed scanner. […] There was also moderate uptake in other regions, which may be caused by the moderate binding activity to σ1 receptor. The quantification of autoradiography from entire 30 brain slices indicated the uptake ratio of radioactivity in striatum versus cerebellum reached 1.75 and 1.54, respectively. (FIGS. 6B and 6D)

VAChT [2] = details: cynomolgus monkey, in vivo
Procedure: PET studies were performed on adult male cynomolgus monkeys (6-8 kg) with a MicroPET Focus 220 scanner (Concorde/CTI/Siemens Microsystems, Knoxville, Tenn.). The animal was anesthetized using an intramuscular injection with ketamine (10-20 mg/kg) and glycopyrrolate (0.013-0.017 mg/kg) and then transported to the PET scanner suit. After arrival, the animal was intubated with an endotracheal tube and anesthesia was maintained at 0.75-2.0% isoflurane/oxygen throughout the procedure, and then a percutaneous venous catheter was placed for radiotracer injection. A heated water blanket was used to keep the temperature at 37° C. In each MicroPET scanning session, the head was positioned supine in the adjustable head holder with the brain in the center of the field of view. A 10-min transmission scan was performed to check positioning; once confirmed, a 45 min transmission scan was obtained for attenuation correction. Subsequently, a 2 h dynamic emission scan was acquired after administration of 296-410 MBq of (−)-[^11C]3 or (−)-[^18F]9a via the venous catheter. PET scans were collected from 0-120 min with the following time frames: 3×1 min, 4×2 min, 3×3 min and 20×5 min. PET image reconstructed resolution was <2.0 mm full width half maximum for all 3 dimensions at the center of the field of view. Emission data were corrected using individual attenuation and model-based scatter correction and reconstructed using filtered back projection. The first baseline PET image for each animal acted as the target image with the MPRAGE and subsequent PETs co-registered using automated image registration program AIR. All MPRAGE-based volume of interest (VOI) analyses were accomplished by experienced investigators. For quantitative analyses, three-dimensional ROIs (striatum, cerebellum, frontal cortex, occipital cortex, temporal, midbrain, hippocampus and thalamus) were transformed to the baseline PET space and then overlaid on all reconstructed PET images to obtain time-activity curves. Activity measures were standardized to body weight and dose of radioactivity injected to yield standardized uptake value (SUV).

[3] = Radiometabolite analysis of NHP arterial plasma; type: in vivo, cynomolgus monkey
Procedure: In order to further understand the kinetic property, radioactive metabolite analysis on HPLC was performed for NHP plasma. (−)-[^18F]9a was chosen for this study because of the high uptake and longer half live of ^18F. Arterial blood samples (1.2-1.5 mL) were collected at 2, 5, 15, 30, and 60 min post-injection of the radiotracer in a heparinized syringe. Aliquots of whole blood (1 mL) were counted in a well counter, then centrifuged to separate red blood cells from plasma. Aliquots of plasma (400 μL) were deproteinated using ice-cold methanol (0.92 mL) and separated by centrifugation. The solvent extract was then injected onto HPLC to identify the percentage of radioactive parent compound versus any radiolabeled metabolites. The HPLC system consisted of an Agilent SB C-18 analytic HPLC column (250 mm×4.6 mm) and an UV detector with wavelength set at 254 nm. The mobile phase was 43% acetonitrile in 0.1 M ammonium formate buffer (pH 4.5), and the flow rate was 1.0 mL/min. The HPLC fractions were collected at 1 min intervals for 16 min; each fraction was counted by a well counter to determine the radioactivity of each collection. The results were corrected for background radiation and physical decay.

VAChT (Rattus norvegicus (Rat), UniProt Q62666), sequence (Q62666 whole entry): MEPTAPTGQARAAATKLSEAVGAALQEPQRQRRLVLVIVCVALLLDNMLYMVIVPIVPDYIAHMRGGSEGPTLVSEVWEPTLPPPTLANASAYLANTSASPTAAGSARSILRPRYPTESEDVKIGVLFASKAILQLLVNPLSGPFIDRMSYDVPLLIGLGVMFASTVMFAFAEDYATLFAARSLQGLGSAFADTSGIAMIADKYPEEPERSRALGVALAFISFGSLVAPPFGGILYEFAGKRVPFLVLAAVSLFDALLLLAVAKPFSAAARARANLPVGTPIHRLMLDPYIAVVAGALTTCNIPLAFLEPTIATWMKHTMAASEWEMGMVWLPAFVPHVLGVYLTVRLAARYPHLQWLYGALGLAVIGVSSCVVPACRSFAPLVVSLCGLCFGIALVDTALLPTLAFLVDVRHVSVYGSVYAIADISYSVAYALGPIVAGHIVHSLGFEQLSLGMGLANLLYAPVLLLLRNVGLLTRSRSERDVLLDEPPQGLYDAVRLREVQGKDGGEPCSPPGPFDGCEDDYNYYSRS

| Compound | uptake ratio of radioactivity in striatum versus cerebellum (VAChT [1]) | brain distribution of radioactivity (autoradiograms) (VAChT [1]) | brain entry (VAChT [2]) | regional brain accumulation (VAChT [2]) | time at which striatal SUV reached maximum (VAChT [2]) | percentage of parent compound in plasma ([3]; NHP arterial plasma, 2 min post-injection) | percentage of parent compound in plasma ([3]; NHP arterial plasma, 5 min post-injection) | percentage of parent compound in plasma ([3]; NHP arterial plasma, 15 min post-injection) | percentage of parent compound in plasma ([3]; NHP arterial plasma, 30 min post-injection) | percentage of parent compound in plasma ([3]; NHP arterial plasma, 60 min post-injection) | percentage of hydrophilic radioactive metabolite ([3]; NHP arterial plasma, peaked after 30 min) | metabolism in plasma ([3]; NHP plasma, HPLC metabolite analysis) | maximum standardized uptake value (SUV) in striatum (VAChT [2]) |
| --- | --- | --- | --- | --- | --- | --- | --- | --- | --- | --- | --- | --- | --- |
| O=C(c1ccc(SCC[18F])cc1)C1CCN([C@@H]2Cc3ccccc3C[C@H]2O)CC1 (single isomer, unassigned) [(−)-[^18F]9a] | 1.54 | high accumulation in the VAChT enriched striatum | able to enter the NHP brain | highest accumulation in the striatal region | 6 min | 69% | 48% | 27% | 21% | 15% | 70% | quickly metabolized in the plasma |  |
| [11CH3]Sc1ccc(C(=O)C2CCN([C@@H]3Cc4ccccc4C[C@H]3O)CC2)cc1 (single isomer, unassigned) [(−)-[^11C]3] | 1.75 | high accumulation in the VAChT enriched striatum | able to enter the NHP brain | highest accumulation in the striatal region | 10 min |  |  |  |  |  |  |  | 4.0 |
